Measured values: patent publication US8618284B2 (Wyeth LLC, priority 2008, dated 2013)

What was measured:
[1] = Granulation effect on the polymorphic transformation of Form A; assay type: physicochemical; settings: dry industrial batch of Form A; for % Form B after granulation: after industrial granulation; for % Form B prior to granulation: before industrial granulation
[2] = in some drug formulations; cited from earlier work
[3] = upon contact with a solvent or solvent mixture (e.g., ethyl acetate and ethanol); cited from earlier work
[4] = aqueous and organic solvent systems, Form A compared with Form B; cited from earlier work
[5] = test system: MCF-7 cell line (human breast cancer cell line); settings: cited from earlier work
[6] = test system: ovariectomized rat model of osteopenia; settings: cited from earlier work
[7] = test system: preclinical models of uterine stimulation; settings: cited from earlier work

Question: With Cc1c(-c2ccc(O)cc2)n(Cc2ccc(OCCN3CCCCCC3)cc2)c2ccc(O)cc12 [batch 8.5] as the compound, how does the “% Form B after granulation” value ([1]; listed as 8.5) read?
Answer: 0.6%

Question: And the “% Form B prior to granulation” value ([1]; listed as 8.5)?
Answer: 0.5%

Question: Which results are given for Cc1c(-c2ccc(O)cc2)n(Cc2ccc(OCCN3CCCCCC3)cc2)c2ccc(O)cc12 [batch 8.4]?
Answer: % Form B after granulation ([1]; listed as 8.4): 0.2%; % Form B prior to granulation ([1]; listed as 8.4): 0.3%

Question: For Cc1c(-c2ccc(O)cc2)n(Cc2ccc(OCCN3CCCCCC3)cc2)c2ccc(O)cc12 [batch 8.7], which “% Form B after granulation” value ([1]; listed as 8.7) is on record?
Answer: 0.2%

Question: And the “% Form B prior to granulation” value ([1]; listed as 8.7)?
Answer: 0.3%

Question: For Cc1c(-c2ccc(O)cc2)n(Cc2ccc(OCCN3CCCCCC3)cc2)c2ccc(O)cc12 [batch 8.6], which “% Form B after granulation” value ([1]; listed as 8.6) is on record?
Answer: 0.1%

Question: For Cc1c(-c2ccc(O)cc2)n(Cc2ccc(OCCN3CCCCCC3)cc2)c2ccc(O)cc12 [Form A, 1-[4-(2-azepan-1-yl-ethoxy)-benzyl]-2-(4-hydroxy-phenyl)-3-methyl-1H-indol-5-ol acetic acid], which bioavailability [2] is on record?
Answer: better bioavailability

Question: And the “conversion of Form A to Form B” value [3]?
Answer: can easily convert to Form B

Question: And the solubility [4]?
Answer: higher solubility

Question: What does the source list for Cc1c(-c2ccc(O)cc2)n(Cc2ccc(OCCN3CCCCCC3)cc2)c2ccc(O)cc12 [bazedoxifene acetate, 1-[4-(2-azepan-1-yl-ethoxy)-benzyl]-2-(4-hydroxy-phenyl)-3-methyl-1H-indol-5-ol acetic acid]?
Answer: estrogen antagonist behaviour [5]: behaves as an estrogen antagonist; effect in preventing bone loss and reducing cholesterol [6]: estrogen agonist-like effect; stimulation of uterine response [7]: little or no stimulation of uterine response
